# How the values were obtained:
# human CYP11B1 = human CYP11B1 (Homo sapiens (Human), UniProt P15538); experiment: G-402 cellular enzyme assay, human CYP11B1 (cortisol release); type: cell-based; conditions: G-402 cells, 1 μM Deoxycortisol
# Description: (§1) Herein we identified the use of the G-402 cell line as a host cell to ectopically express (transiently or stably) enzymes of the CYP11 family. Specifically we developed stable G-402 cells expressing ectopically human CYP11B1, human CYP11B2, human CYP11A1, cynmolgus CYP11B1 or cynomolgus CYP11B2 enzyme activity. Importantly the identified cell line G-402 expresses co-factors (adrenodoxin and adrenodoxin reductase) important for the activity of the CYP11 family and no relevant enzyme activity of the CYP11 family (in comparison to H295R cells) was detected in these cells. Therefore the G-402 cell line is uniquely suited as a host cell for the ectopic expression of enzymes from the CYP11 family.
# (§2) G-402 cells can be obtained from ATCC (CRL-1440) and were originally derived from a renal leiomyoblastoma.
# (§3) The expression plasmids contains the ORF for either human/cyno CYP11B1 or CYP11B2 under the control of a suitable promoter (CMV-promoter) and a suitable resistance marker (neomycin). Using standard techniques the expression plasmid is transfected into G-402 cells and these cells are then selected for expressing the given resistance markers. Individual cell-clones are then selected and assessed for displaying the desired enzymatic activity using 11-Deoxycorticosterone (Cyp11B2) or 11-Deoxycortisol (Cyp11B1) as a substrate.
# (§4) G-402 cells expressing CYP11 constructs were established as described above and maintained in McCoy's 5a Medium Modified, ATCC Catalog No. 30-2007 containing 10% FCS and 400 μg/ml G418 (Geneticin) at 37° C. under an atmosphere of 5% CO2/95% air. Cellular enzyme assays were performed in DMEM/F12 medium containing 2.5% charcoal treated FCS and appropriate concentration of substrate (0.3-10 uM 11-Deoxycorticosterone, 11-Deoxycortisol or Corticosterone). For assaying enzymatic activity, cells were plated onto 96 well plates and incubated for 16 h. An aliquot of the supernatant is then transferred and analyzed for the concentration of the expected product (Aldosterone for CYP11B2; Cortisol for CYP11B1). The concentrations of these steroids can be determined using HTRF assays from CisBio analyzing either Aldosterone or Cortisol.
# (§5) Inhibition of the release of produced steroids can be used as a measure of the respective enzyme inhibition by test compounds added during the cellular enzyme assay. The dose dependent inhibition of enzymatic activity by a compound is calculated by means of plotting added inhibitor concentrations (x-axes) vs. measured steroid/product level (y-axes). The inhibition is then calculated by fitting the following 4-parameter sigmoidal function (Morgan-Mercer-Flodin (MMF) model) to the raw data points using the least squares method:
# (§6) [formula] wherein, A is the maximum y value, B is the EC50 factor determined using XLFit, C is the minimum y value and D is the slope value.
# (§7) EC50 values for compounds claimed herein were tested with the G402-based assay system described. Cyp11B2 enzyme activity was tested in presence of 1 μM Deoxycorticosterone and variable amounts of inhibitors; Cyp11B1 enzyme activity was tested in presence of 1 μM Deoxycortisol and variable amounts of inhibitors.
# CYP11B2 = CYP11B2 (Homo sapiens (Human), UniProt P19099); experiment: G-402 cellular enzyme assay, human CYP11B2 (aldosterone release); type: cell-based; conditions: G-402 cells, 1 μM Deoxycorticosterone
# Description: as §1, §2, §3, §4, §5, §6, §7
# Chain of CYP11B2 (P19099 25-503): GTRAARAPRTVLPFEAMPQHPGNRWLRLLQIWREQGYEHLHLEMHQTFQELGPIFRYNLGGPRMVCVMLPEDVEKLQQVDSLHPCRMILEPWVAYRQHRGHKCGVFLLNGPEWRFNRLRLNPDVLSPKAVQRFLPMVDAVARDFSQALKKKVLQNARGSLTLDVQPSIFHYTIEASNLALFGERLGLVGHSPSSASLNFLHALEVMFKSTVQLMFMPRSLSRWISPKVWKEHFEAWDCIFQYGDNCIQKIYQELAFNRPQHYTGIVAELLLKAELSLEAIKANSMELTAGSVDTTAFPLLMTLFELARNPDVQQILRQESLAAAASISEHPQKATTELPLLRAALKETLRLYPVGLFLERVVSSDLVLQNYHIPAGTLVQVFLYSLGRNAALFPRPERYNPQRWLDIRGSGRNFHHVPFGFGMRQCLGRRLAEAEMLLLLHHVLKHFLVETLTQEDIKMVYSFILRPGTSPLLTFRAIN
# Chain of human CYP11B1 (P15538 25-503): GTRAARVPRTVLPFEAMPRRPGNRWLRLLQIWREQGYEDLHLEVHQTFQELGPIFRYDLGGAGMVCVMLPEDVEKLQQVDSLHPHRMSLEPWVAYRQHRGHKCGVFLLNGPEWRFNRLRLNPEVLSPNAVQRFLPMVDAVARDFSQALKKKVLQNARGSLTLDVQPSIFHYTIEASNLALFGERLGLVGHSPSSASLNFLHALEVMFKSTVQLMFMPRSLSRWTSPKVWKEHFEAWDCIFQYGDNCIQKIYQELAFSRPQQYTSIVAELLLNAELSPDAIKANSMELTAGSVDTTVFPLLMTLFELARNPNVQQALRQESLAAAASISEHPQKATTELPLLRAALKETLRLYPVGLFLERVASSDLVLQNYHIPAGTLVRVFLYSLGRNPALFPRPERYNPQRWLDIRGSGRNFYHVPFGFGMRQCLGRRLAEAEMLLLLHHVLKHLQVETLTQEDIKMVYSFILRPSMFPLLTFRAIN
EC50 (human CYP11B1) [nM],EC50 (CYP11B2) [nM],SMILES
3840,34,"CC(C)S(=O)(=O)N1CC(Nc2cncc(N3CCc4cc(Cl)ccc4C3=O)c2)C1 [Example 31, 6-Chloro-2-[5-[(1-propan-2-ylsulfonylazetidin-3-yl)amino]pyridin-3-yl]-3,4-dihydroisoquinolin-1-one]"
> 30000,65,"CCC(=O)N1CC(Nc2cncc(N3C(=O)c4ccc(Cl)cc4C3C)c2)C1 (stereo not drawn) [Example 33, 5-Chloro-3-methyl-2-[5-[(1-propanoylazetidin-3-yl)amino]pyridin-3-yl]-3H-isoindol-1-one]"
8240,11,"CC(C)S(=O)(=O)N1CC2(CC(Nc3cncc(N4C(=O)c5ccc(Cl)cc5C4(C)C)c3)C2)C1 [Example 38, 5-Chloro-3,3-dimethyl-2-[5-[(2-propan-2-ylsulfonyl-2-azaspiro[3.3]heptan-6-yl)amino]pyridin-3-yl]isoindol-1-one]"
25,0.6,"CCCS(=O)(=O)N1CC(N(C)c2cncc(N3C(=O)c4ccc(Cl)cc4C3(C)C)c2)C1 [Example 14, 5-Chloro-3,3-dimethyl-2-[5-[methyl-(1-propylsulfonylazetidin-3-yl)amino]pyridin-3-yl]isoindol-1-one]"
41100,215,"CC(=O)N1CC(Nc2cncc(N3CCc4cc(Cl)ccc4C3=O)c2)C1 [Example 32, 2-[5-[(1-Acetylazetidin-3-yl)amino]pyridin-3-yl]-6-chloro-3,4-dihydroisoquinolin-1-one]"
23700,178,"CCC(=O)N1CC(Nc2cncc(N3CCc4cc(Cl)ccc4C3=O)c2)C1 [Example 29, 6-Chloro-2-[5-[(1-propanoylazetidin-3-yl)amino]pyridin-3-yl]-3,4-dihydroisoquinolin-1-one]"
0.4,0.8,"CCS(=O)(=O)N1CCC(N(C)c2cncc(N3C(=O)c4ccc(Cl)cc4C3(C)C)c2)CC1 [Example 20, 5-Chloro-2-[5-[(1-ethylsulfonylpiperidin-4-yl)-methylamino]pyridin-3-yl]-3,3-dimethylisoindol-1-one]"
> 30000,2360,"CC(C)S(=O)(=O)N1CCCC(Nc2cncc(N3C(=O)c4ccc(Cl)cc4C3(C)C)c2)C1 (single isomer, unassigned) [Example 26, 5-Chloro-3,3-dimethyl-2-[5-[[(3R or 3S)-1-propan-2-ylsulfonylpiperidin-3-yl]amino]pyridin-3-yl]isoindol-1-one]"
552,12,"CC(=O)N1CC(N(C)c2cncc(N3C(=O)c4ccc(Cl)cc4C3(C)C)c2)C1 [Example 2, 2-[5-[(1-Acetylazetidin-3-yl)-methylamino]pyridin-3-yl]-5-chloro-3,3-dimethylisoindol-1-one]"
6850,449,"CC(=O)N1CC2(CC(Nc3cncc(N4C(=O)c5ccc(Cl)cc5C4(C)C)c3)C2)C1 [Example 35, 2-[5-[(2-Acetyl-2-azaspiro[3.3]heptan-6-yl)amino]pyridin-3-yl]-5-chloro-3,3-dimethylisoindol-1-one]"
4570,13,"CCS(=O)(=O)N1CCC(Nc2cncc(N3C(=O)c4ccc(C#N)cc4C3(C)C)c2)CC1 [Example 43, 2-[5-[(1-Ethylsulfonyl-4-piperidyl)amino]-3-pyridyl]-3,3-dimethyl-1-oxo-isoindoline-5-carbonitrile]"
6990,22,"CCC(=O)N1CCC(Nc2cncc(N3C(=O)c4ccc(C#N)cc4C3(C)C)c2)CC1 [Example 44, 3,3-Dimethyl-1-oxo-2-[5-[(1-propanoyl-4-piperidyl)amino]-3-pyridyl]isoindoline-5-carbonitrile]"
2450,31,"CC(=O)N1CCC(Nc2cncc(N3C(=O)c4ccc(Cl)cc4C3(C)C)c2)CC1 [Example 5, 2-[5-[(1-Acetylpiperidin-4-yl)amino]pyridin-3-yl]-5-chloro-3,3-dimethylisoindol-1-one]"
39,0.5,"CCS(=O)(=O)N1CC(N(C)c2cncc(N3C(=O)c4ccc(Cl)cc4C3(C)C)c2)C1 [Example 10, 5-Chloro-2-[5-[(1-ethylsulfonylazetidin-3-yl)-methylamino]pyridin-3-yl]-3,3-dimethylisoindol-1-one]"
1540,4,"CCS(=O)(=O)N1CCC(Nc2cncc(N3C(=O)c4ccc(Cl)cc4C3(C)C)c2)CC1 [Example 6, 5-Chloro-2-[5-[(1-ethylsulfonylpiperidin-4-yl)amino]pyridin-3-yl]-3,3-dimethylisoindol-1-one]"
86,2,"CCC(=O)N1CC(N(C)c2cncc(N3C(=O)c4ccc(Cl)cc4C3(C)C)c2)C1 [Example 12, 5-Chloro-3,3-dimethyl-2-[5-[methyl-(1-propanoylazetidin-3-yl)amino]pyridin-3-yl]isoindol-1-one]"
4180,154,"CCC(=O)N1CC(Nc2cncc(N3C(=O)c4ccc(Cl)cc4[C@@H]3C)c2)C1 (single isomer, unassigned) [Example 40, (3S or 3R)-5-Chloro-3-methyl-2-[5-[(1-propanoylazetidin-3-yl)amino]-3-pyridyl]isoindolin-1-one]"
18200,1200,"CC1(C)c2cc(Cl)ccc2C(=O)N1c1cncc(NC2CCCN(S(C)(=O)=O)C2)c1 (single isomer, unassigned) [Example 23, 5-Chloro-3,3-dimethyl-2-[5-[[(3S or 3R)-1-methylsulfonylpiperidin-3-yl]amino]pyridin-3-yl]isoindol-1-one]"
5930,122,"CCC(=O)N1CC(Nc2cncc(N3C(=O)c4ccc(C#N)cc4C3(C)C)c2)C1 [Example 45, 3,3-Dimethyl-1-oxo-2-[5-[(1-propanoylazetidin-3-yl)amino]-3-pyridyl]isoindoline-5-carbonitrile]"
2,0.7,"CCC(=O)N1CCC(N(C)c2cncc(N3C(=O)c4ccc(Cl)cc4C3(C)C)c2)CC1 [Example 19, 5-Chloro-3,3-dimethyl-2-[5-[methyl-(1-propanoylpiperidin-4-yl)amino]pyridin-3-yl]isoindol-1-one]"
1070,12,"CCS(=O)(=O)N1CC(Nc2cncc(N3C(=O)c4ccc(Cl)cc4[C@@H]3C)c2)C1 (single isomer, unassigned) [Example 42, (3S or 3R)-5-Chloro-2-[5-[(1-ethylsulfonylazetidin-3-yl)amino]-3-pyridyl]-3-methyl-isoindolin-1-one]"
15400,61,"CCS(=O)(=O)N1CC(Nc2cncc(N3CCc4cc(Cl)ccc4C3=O)c2)C1 [Example 30, 6-Chloro-2-[5-[(1-ethylsulfonylazetidin-3-yl)amino]pyridin-3-yl]-3,4-dihydroisoquinolin-1-one]"
2800,17,"CC1(C)c2cc(Cl)ccc2C(=O)N1c1cncc(NC2CN(S(C)(=O)=O)C2)c1 [Example 8, 5-Chloro-3,3-dimethyl-2-[5-[(1-methylsulfonylazetidin-3-yl)amino]pyridin-3-yl]isoindol-1-one]"
27200,149,"CC1(C)c2cc(Cl)ccc2C(=O)N1c1cncc(NC2CCCN(S(C)(=O)=O)C2)c1 (single isomer, unassigned) [Example 22, 5-Chloro-3,3-dimethyl-2-[5-[[(3R or 3S)-1-methylsulfonylpiperidin-3-yl]amino]pyridin-3-yl]isoindol-1-one]"

# — patent US9695151B2, “3,4-dihydro-2H-isoquinoline-1-one and 2,3-dihydro-isoindol-1-one compounds” (Hoffmann-La Roche Inc., priority 2013, dated 2017)
